Like-named read-outs stand apart in the source and are kept apart here.

For assay [1], the target named is human TLR9 (Homo sapiens (Human), UniProt Q9NR96). Description: TLR9 inhibition reporter assay (HEK-Blue cells, SEAP reporter, ODN2006 stimulation).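 Note: compounds tested over 0.05 nM to 50 µM, 22 h incubation, inhibition taken as SEAP signal drop from agonist plus DMSO wells toward a known inhibitor control.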 A general note: A reporter such as luciferase makes a cellular process visible.
Assay [2] deals with human TLR8 (Homo sapiens (Human), UniProt Q9NR97). The assay is described as follows: TLR8 inhibition reporter assay (HEK-Blue cells, SEAP reporter, R848 stimulation).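 Note: compounds tested from 0.05 nM to 50 µM, 22 h at 37 °C, SEAP measured with HEK-Blue Detection, inhibition relative to agonist plus DMSO versus a known inhibitor.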
human TLR8, sequence (Q9NR97 27-1041): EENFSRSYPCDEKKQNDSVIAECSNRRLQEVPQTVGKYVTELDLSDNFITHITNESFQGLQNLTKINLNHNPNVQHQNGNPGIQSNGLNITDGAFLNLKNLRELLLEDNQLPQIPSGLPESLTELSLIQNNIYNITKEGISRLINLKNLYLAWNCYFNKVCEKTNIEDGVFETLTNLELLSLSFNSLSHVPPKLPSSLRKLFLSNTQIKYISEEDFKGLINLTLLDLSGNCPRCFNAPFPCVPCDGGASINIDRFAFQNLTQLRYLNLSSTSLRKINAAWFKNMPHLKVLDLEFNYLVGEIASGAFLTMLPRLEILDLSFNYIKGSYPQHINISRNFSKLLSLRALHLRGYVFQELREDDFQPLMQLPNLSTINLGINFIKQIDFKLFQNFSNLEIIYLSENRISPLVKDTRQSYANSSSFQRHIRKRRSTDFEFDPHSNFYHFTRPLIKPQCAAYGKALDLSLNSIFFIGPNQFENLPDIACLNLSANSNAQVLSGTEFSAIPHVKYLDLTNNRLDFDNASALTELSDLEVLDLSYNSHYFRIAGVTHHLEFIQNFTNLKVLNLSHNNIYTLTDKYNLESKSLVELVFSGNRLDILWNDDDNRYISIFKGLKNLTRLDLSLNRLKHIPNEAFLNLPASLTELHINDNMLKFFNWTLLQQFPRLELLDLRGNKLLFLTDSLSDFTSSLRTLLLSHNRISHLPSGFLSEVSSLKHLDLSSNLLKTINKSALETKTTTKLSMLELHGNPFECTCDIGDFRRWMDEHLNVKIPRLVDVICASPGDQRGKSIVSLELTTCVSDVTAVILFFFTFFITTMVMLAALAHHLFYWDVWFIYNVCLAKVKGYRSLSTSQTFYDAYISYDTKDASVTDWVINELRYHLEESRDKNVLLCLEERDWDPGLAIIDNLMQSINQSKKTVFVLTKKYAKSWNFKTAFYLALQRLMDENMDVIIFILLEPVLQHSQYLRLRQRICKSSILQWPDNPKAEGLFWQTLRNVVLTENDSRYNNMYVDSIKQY
For assay [3], the target named is human TLR7 (Homo sapiens (Human), UniProt Q9NYK1). The assay is described as follows: TLR7 inhibition reporter assay (HEK-Blue cells, SEAP reporter, gardiquimod stimulation). Type of assay: cell-based.
human TLR7, sequence (Q9NYK1 27-1049): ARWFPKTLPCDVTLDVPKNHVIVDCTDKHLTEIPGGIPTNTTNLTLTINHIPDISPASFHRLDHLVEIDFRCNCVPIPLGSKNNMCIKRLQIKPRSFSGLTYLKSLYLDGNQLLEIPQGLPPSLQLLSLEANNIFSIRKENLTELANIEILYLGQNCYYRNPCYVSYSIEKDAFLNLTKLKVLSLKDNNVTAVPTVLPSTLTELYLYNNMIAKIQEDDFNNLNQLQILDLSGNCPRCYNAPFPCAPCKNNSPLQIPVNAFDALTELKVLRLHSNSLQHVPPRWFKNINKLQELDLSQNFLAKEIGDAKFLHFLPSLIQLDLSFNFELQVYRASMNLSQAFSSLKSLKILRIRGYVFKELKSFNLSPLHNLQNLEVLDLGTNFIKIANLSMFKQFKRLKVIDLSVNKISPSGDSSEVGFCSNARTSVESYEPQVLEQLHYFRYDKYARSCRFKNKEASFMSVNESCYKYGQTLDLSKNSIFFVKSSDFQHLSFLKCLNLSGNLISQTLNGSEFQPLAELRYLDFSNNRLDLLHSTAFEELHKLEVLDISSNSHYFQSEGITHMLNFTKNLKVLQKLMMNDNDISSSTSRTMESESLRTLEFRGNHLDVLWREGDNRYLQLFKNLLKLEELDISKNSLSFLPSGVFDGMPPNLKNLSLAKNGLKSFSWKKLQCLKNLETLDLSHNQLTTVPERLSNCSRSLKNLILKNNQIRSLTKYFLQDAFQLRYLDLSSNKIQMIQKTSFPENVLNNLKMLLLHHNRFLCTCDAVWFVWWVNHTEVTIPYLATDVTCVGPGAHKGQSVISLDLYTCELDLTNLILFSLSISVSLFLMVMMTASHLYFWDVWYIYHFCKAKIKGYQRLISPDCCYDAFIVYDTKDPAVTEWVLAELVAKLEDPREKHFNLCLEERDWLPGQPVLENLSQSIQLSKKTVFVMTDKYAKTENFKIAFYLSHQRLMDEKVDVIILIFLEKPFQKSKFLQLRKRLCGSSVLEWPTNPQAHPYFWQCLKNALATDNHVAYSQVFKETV
Protocol: TLR7/8/9 Inhibition Reporter Assays
Briefly, cells are seeded into Greiner 384 well plates (15000 cells per well for TLR7, 20,000 for TLR8 and 25,000 for TLR9) and then treated with test compounds in DMSO to yield a final dose response concentration range of 0.05 nM-50 μM. […] After a 22 hour incubation at 37° C., 5% CO2, SEAP levels are determined with the addition of HEK-Blue™ Detection reagent (Invivogen), a cell culture medium that allows for detection of SEAP, according to manufacturer's specifications. The percent inhibition is determined as the % reduction in the HEK-Blue signal present in wells treated with agonist plus DMSO alone compared to wells treated with a known inhibitor.
[4] abbreviates: read-out: TLR9 IC50, HEK-Blue cells overexpressing human TLR9, ODN2006 5 nM.
Setting [5] is: read-out: TLR8 IC50, HEK-Blue cells overexpressing human TLR8, R848 15.9 μM.
[6] abbreviates: HEK-Blue cells overexpressing human TLR7, gardiquimod 7.5 μM.
Where [7] appears, read: read-out: TLR9 IC50, HEK-Blue cells, ODN2006 5 nM.
Setting [8] is: read-out: TLR8 IC50, HEK-Blue cells, R848 15.9 μM.
The mark [9] stands for this setting: HEK-Blue cells, gardiquimod 7.5 μM.

human TLR9, sequence (Q9NR96 26-1032): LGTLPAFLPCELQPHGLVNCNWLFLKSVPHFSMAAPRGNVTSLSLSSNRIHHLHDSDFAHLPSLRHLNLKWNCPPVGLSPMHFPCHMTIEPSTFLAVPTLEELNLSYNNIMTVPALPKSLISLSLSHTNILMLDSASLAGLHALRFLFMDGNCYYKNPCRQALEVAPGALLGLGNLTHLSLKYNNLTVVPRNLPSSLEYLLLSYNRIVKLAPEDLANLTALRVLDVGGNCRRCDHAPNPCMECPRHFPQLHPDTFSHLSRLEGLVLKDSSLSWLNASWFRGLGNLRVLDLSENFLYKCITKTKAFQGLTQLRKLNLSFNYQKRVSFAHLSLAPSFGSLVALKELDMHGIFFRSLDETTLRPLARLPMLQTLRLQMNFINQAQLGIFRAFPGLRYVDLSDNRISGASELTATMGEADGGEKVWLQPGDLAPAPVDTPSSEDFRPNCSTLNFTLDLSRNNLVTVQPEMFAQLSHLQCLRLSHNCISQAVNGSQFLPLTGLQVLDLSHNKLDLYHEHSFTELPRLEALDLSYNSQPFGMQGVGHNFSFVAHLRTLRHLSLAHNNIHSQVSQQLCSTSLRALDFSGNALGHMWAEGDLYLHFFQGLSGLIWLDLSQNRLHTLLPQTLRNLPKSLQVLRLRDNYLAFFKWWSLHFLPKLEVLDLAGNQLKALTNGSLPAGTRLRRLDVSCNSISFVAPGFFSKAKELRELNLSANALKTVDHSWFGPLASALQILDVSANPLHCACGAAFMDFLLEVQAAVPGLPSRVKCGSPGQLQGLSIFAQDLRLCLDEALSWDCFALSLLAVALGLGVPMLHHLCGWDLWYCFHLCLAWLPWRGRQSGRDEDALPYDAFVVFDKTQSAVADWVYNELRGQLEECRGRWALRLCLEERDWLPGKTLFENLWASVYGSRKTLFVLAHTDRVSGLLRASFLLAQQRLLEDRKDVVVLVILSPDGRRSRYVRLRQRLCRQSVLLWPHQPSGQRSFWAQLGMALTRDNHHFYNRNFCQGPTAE

By IC50 is commonly meant the concentration needed to halve the response being measured. On to `Cc1cc(-c2[nH]c3ccc(C4CCN(CC(=O)N(C)[C@H]5CCOC5)CC4)cc3c2C(C)C)cc(C)n1` [Example 307, (S)-2-(4-(2-(2,6-dimethylpyridin-4-yl)-3-isopropyl-1H-indol-5-yl)piperidin-1-yl)-N-methyl-N-(tetrahydrofuran-3-yl)acetamide], for which the IC50 in assay [1] (setting [4]) is 3680 nM; in assay [2] (setting [5]) it was 87.2 nM; in assay [3] (setting [6]), 17.7 nM.

As for `Cc1cc(-c2[nH]c3ccc(C4CCN(CCC(F)(F)F)CC4)cc3c2C(C)C)cc(C)n1` [Example 677, 2-(2,6-dimethylpyridin-4-yl)-3-isopropyl-5-(1-(3,3,3-trifluoropropyl)piperidin-4-yl)-1H-indole], the IC50 is 1690 nM in assay [1] (setting [4]), 6.7 nM in assay [2] (setting [5]) and 3.4 nM in assay [3] (setting [6]).

`COCCN(C)CC(=O)N1CCC(c2ccc3[nH]c(-c4cc(C)nc(C)c4)c(C(C)C)c3c2)CC1` [Example 148, 1-(4-(2-(2,6-dimethylpyridin-4-yl)-3-isopropyl-1H-indol-5-yl)piperidin-1-yl)-2-((2-methoxyethyl)(methyl)amino)ethan-1-one]: the IC50 was 900 nM in assay [1] (setting [4]), 9.8 nM in assay [2] (setting [5]) and 2.2 nM in assay [3] (setting [6]).

For the molecule `Cc1cc(-c2[nH]c3ccc(C4CCN(CC(=O)N(C)C5CCOC5)CC4)cc3c2C(C)C)cc(C)n1` (stereo not drawn) [Example 289, 2-(4-(2-(2,6-dimethylpyridin-4-yl)-3-isopropyl-1H-indol-5-yl)piperidin-1-yl)-N-methyl-N-(tetrahydrofuran-3-yl)acetamide], the figures for the IC50 in assay [1] (setting [4]), in assay [2] (setting [5]) and in assay [3] (setting [6]) were 697 nM, 16.9 nM and 6 nM, respectively.

Take `CCc1c(-c2ccnc(C(=O)OC)c2)[nH]c2ccc(C3CCN(C4CCN(CC(C)C)CC4)CC3)cc12` [Example 762, methyl 4-(3-ethyl-5-(1′-isobutyl-[1,4′-bipiperidin]-4-yl)-1H-indol-2-yl)picolinate]: the values for the IC50 in assay [1] (setting [4]), in assay [2] (setting [5]) and in assay [3] (setting [6]) were 223 nM, 14.3 nM and 708 nM, respectively.

As for `CC(C)c1c(-c2ccnc(N)c2)[nH]c2ccc(C3CCN(Cc4cnc[nH]4)CC3)cc12` [Example 817, 4-(5-(1-((1H-imidazol-5-yl)methyl)piperidin-4-yl)-3-isopropyl-1H-indol-2-yl)pyridin-2-amine], the figures for the IC50 in assay [1] (setting [7]), in assay [2] (setting [8]) and in assay [3] (setting [9]) were 177 nM, 56 nM and 224 nM, respectively.

`Cc1cc(-c2[nH]c3ccc(C4CCN(CC(=O)NCCC(C)O)CC4)cc3c2C(C)C)cc(C)n1` (stereo not drawn) [Example 262, 2-(4-(2-(2,6-dimethylpyridin-4-yl)-3-isopropyl-1H-indol-5-yl)piperidin-1-yl)-N-(3-hydroxybutyl)acetamide]: the IC50 in assay [1] (setting [4]) is 715 nM; in assay [2] (setting [5]), 6 nM; in assay [3] (setting [6]), 2 nM.

`Cc1cc(-c2[nH]c3ccc(C4CCN(CC(=O)NCCC(C)C)CC4)cc3c2C(C)C)cc(C)n1` [Example 237, 2-(4-(2-(2,6-dimethylpyridin-4-yl)-3-isopropyl-1H-indol-5-yl)piperidin-1-yl)-N-isopentylacetamide]: the IC50 in assay [1] (setting [4]) is 1890 nM; in assay [2] (setting [5]), 51.1 nM; in assay [3] (setting [6]) it was 24.9 nM.

Consider `CCc1c(-c2ccnc(C)c2)[nH]c2ccc(C3CCN(C(=O)CCN(C)C)CC3)cc12` [Example 594, 3-(dimethylamino)-1-(4-(3-ethyl-2-(2-methylpyridin-4-yl)-1H-indol-5-yl)piperidin-1-yl)propan-1-one], for which the IC50 turned out to be 610 nM in assay [1] (setting [4]), 39.4 nM in assay [2] (setting [5]) and 30.2 nM in assay [3] (setting [6]).

`Cc1cc(-c2[nH]c3ccc(C4CCN(CC(=O)NCC#N)CC4)cc3c2C(C)C)cc(C)n1` [Example 239, N-(cyanomethyl)-2-(4-(2-(2,6-dimethylpyridin-4-yl)-3-isopropyl-1H-indol-5-yl)piperidin-1-yl)acetamide]: the IC50 in assay [1] (setting [4]) was 1590 nM; in assay [2] (setting [5]), 8.9 nM; in assay [3] (setting [6]), 6.7 nM.

`Cc1cc(-c2[nH]c3ccc(C4CCN(C5CCN(C(C)C)CC5)CC4)cc3c2CC(F)F)cc(C)n1` [Example 540, 3-(2,2-difluoroethyl)-2-(2,6-dimethylpyridin-4-yl)-5-(1′-isopropyl-[1,4′-bipiperidin]-4-yl)-1H-indole]: the IC50 in assay [1] (setting [4]) turned out to be 131 nM; in assay [2] (setting [5]), 25.6 nM; in assay [3] (setting [6]), 11.8 nM.

Take `CCOCCN1CCC(c2ccc3[nH]c(-c4ccnc(C)c4)c(C(C)C)c3c2)CC1` [Example 659, 5-(1-(2-ethoxyethyl)piperidin-4-yl)-3-isopropyl-2-(2-methylpyridin-4-yl)-1H-indole]: the IC50 in assay [1] (setting [4]) was found to be 1450 nM; in assay [2] (setting [5]) it was 16.7 nM; in assay [3] (setting [6]), 31.7 nM.

Consider `Cc1cc(-c2[nH]c3ccc(C4CCN(C(=O)CN(C)CCC5(O)CCCC5)CC4)cc3c2C(C)C)cc(C)n1` [Example 408, 1-(4-(2-(2,6-dimethylpyridin-4-yl)-3-isopropyl-1H-indol-5-yl)piperidin-1-yl)-2-((2-(1-hydroxycyclopentyl)ethyl)(methyl)amino)ethan-1-one], for which the IC50 in assay [1] (setting [4]) amounted to 846 nM; in assay [2] (setting [5]), 72.5 nM; in assay [3] (setting [6]), 7.6 nM.

For `Cc1cc(-c2[nH]c3ccc(C4CCN(C(=O)C5CC5(F)F)CC4)cc3c2C(C)C)cc(C)n1` (stereo not drawn) [Example 108, (2,2-difluorocyclopropyl)(4-(2-(2,6-dimethylpyridin-4-yl)-3-isopropyl-1H-indol-5-yl)piperidin-1-yl)methanone], the IC50 in assay [1] (setting [4]) turned out to be 33100 nM; in assay [2] (setting [5]) it was 103 nM; in assay [3] (setting [6]), 7.4 nM.

Consider `CCc1c(-c2ccnc(O)c2)[nH]c2ccc(C3CCN(C4CCN(CC(C)C)CC4)CC3)cc12` [Example 765, 4-(3-ethyl-5-(1′-isobutyl-[1,4′-bipiperidin]-4-yl)-1H-indol-2-yl)pyridin-2-ol], for which the IC50 in assay [1] (setting [4]) was 181 nM; in assay [2] (setting [5]), 341 nM; in assay [3] (setting [6]) it was 11000 nM.

With `CCc1c(-c2ccnc(F)c2)[nH]c2ccc(C3CCN(C4CCN(CC(C)C)CC4)CC3)cc12` [Example 759, 3-ethyl-2-(2-fluoropyridin-4-yl)-5-(1′-isobutyl-[1,4′-bipiperidin]-4-yl)-1H-indole], the IC50 in assay [1] (setting [4]) was 655 nM; in assay [2] (setting [5]), 257 nM; in assay [3] (setting [6]) it was 1520 nM.

As to `Cc1cc(-c2[nH]c3ccc(C4CCN(C(=O)C5(C)COC5)CC4)cc3c2C(C)C)ccn1` [Example 596, (4-(3-isopropyl-2-(2-methylpyridin-4-yl)-1H-indol-5-yl)piperidin-1-yl)(3-methyloxetan-3-yl)methanone], the IC50 turned out to be 44500 nM in assay [1] (setting [4]), 102 nM in assay [2] (setting [5]) and 33.3 nM in assay [3] (setting [6]).

As to `CCc1c(-c2ccnc(OC)c2)[nH]c2ccc(C3CCNCC3)cc12` [Example 61, 3-ethyl-2-(2-methoxypyridin-4-yl)-5-(piperidin-4-yl)-1H-indole], the figures for the IC50 in assay [1] (setting [4]), in assay [2] (setting [5]) and in assay [3] (setting [6]) were 2370 nM, 58.8 nM and 207 nM, respectively.

For `Cc1cc(-c2[nH]c3ccc(C4CCN(C(=O)CN(C)C)CC4)cc3c2C(C)C)c(F)c(C)n1` [Example 588, 2-(dimethylamino)-1-(4-(2-(3-fluoro-2,6-dimethylpyridin-4-yl)-3-isopropyl-1H-indol-5-yl)piperidin-1-yl)ethan-1-one], the IC50 in assay [1] (setting [4]) is 845 nM; in assay [2] (setting [5]), 1.3 nM; in assay [3] (setting [6]), 0.5 nM.

Turning to `Cc1cc(-c2[nH]c3ccc(C4CCN(CC(N)=O)CC4)cc3c2C(C)C)c(C)cn1` [Example 651, 2-(4-(2-(2,5-dimethylpyridin-4-yl)-3-isopropyl-1H-indol-5-yl)piperidin-1-yl)acetamide], the IC50 in assay [1] (setting [4]) worked out at 3740 nM; in assay [2] (setting [5]), 2.1 nM; in assay [3] (setting [6]) it was 5.3 nM.

For the molecule `Cc1cc(-c2[nH]c3cc(F)c(C4CCN(C5CC(C)OC(C)C5)CC4)cc3c2C(C)C)cc(C)n1` (stereo not drawn) [Example 833, 2-(2,6-dimethylpyridin-4-yl)-5-(1-(2,6-dimethyltetrahydro-2H-pyran-4-yl)piperidin-4-yl)-6-fluoro-3-isopropyl-1H-indole], the IC50 came out at 556 nM in assay [1] (setting [7]), 29.6 nM in assay [2] (setting [8]) and 9.4 nM in assay [3] (setting [9]).

Regarding `Cc1cc(-c2[nH]c3ccc(C4CCN(Cc5ccnn5C)CC4)cc3c2C(C)C)cc(C)n1` [Example 461, 2-(2,6-dimethylpyridin-4-yl)-3-isopropyl-5-(1-((1-methyl-1H-pyrazol-5-yl)methyl)piperidin-4-yl)-1H-indole], the IC50 stood at 621 nM in assay [1] (setting [4]), 7.5 nM in assay [2] (setting [5]) and 9.3 nM in assay [3] (setting [6]).

As to `Cc1cc(-c2[nH]c3ccc(C4CCN(S(=O)(=O)C5CC5)CC4)cc3c2C(C)C)ccn1` [Example 555, 5-(1-(cyclopropylsulfonyl)piperidin-4-yl)-3-isopropyl-2-(2-methylpyridin-4-yl)-1H-indole], the figures for the IC50 in assay [1] (setting [4]), in assay [2] (setting [5]) and in assay [3] (setting [6]) were > 50000 nM, 92.1 nM and 34.9 nM, respectively.

For the molecule `Cc1cc(-c2[nH]c3ccc(C4CCN(C(=O)CNC5CCOC5)CC4)cc3c2C(C)C)cc(C)n1` (stereo not drawn) [Example 387, 1-(4-(2-(2,6-dimethylpyridin-4-yl)-3-isopropyl-1H-indol-5-yl)piperidin-1-yl)-2-((tetrahydrofuran-3-yl)amino)ethan-1-one], the IC50 is 909 nM in assay [1] (setting [4]), 13.3 nM in assay [2] (setting [5]) and 0.6 nM in assay [3] (setting [6]).

For `Cc1cc(-c2[nH]c3ccc(C4CCN(CCC#N)CC4)cc3c2C(C)C)cc(C)n1` [Example 315, 3-(4-(2-(2,6-dimethylpyridin-4-yl)-3-isopropyl-1H-indol-5-yl)piperidin-1-yl)propanenitrile], the figures for the IC50 in assay [1] (setting [4]), in assay [2] (setting [5]) and in assay [3] (setting [6]) were 1060 nM, 9 nM and 6.6 nM, respectively.

(Values after US10660877B2 (BRISTOL-MYERS SQUIBB COMPANY, priority 2016, dated 2020).)
